Data from article PMC6707612, “Cyclic-di-GMP binds to histidine kinase RavS to control RavS-RavR phosphotransfer and regulates the bacterial lifestyle transition between virulence and swimming” (PLoS Pathogens, 2019).

Biological target: T1, RavR^ΔEAL (Xanthomonas campestris pv. campestris, UniProt Q8P9A7)
T1 sequence (Q8P9A7 with tags, fused parts or gaps): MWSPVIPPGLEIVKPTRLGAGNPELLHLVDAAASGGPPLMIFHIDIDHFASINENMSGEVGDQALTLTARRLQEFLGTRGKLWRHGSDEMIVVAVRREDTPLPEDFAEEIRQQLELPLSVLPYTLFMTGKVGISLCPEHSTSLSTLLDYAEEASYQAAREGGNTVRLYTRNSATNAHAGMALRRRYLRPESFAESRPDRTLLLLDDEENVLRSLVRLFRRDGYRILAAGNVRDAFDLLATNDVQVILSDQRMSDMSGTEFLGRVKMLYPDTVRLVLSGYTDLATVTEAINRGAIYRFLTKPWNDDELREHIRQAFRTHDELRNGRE
Test: microscale thermophoresis (MST) binding
Details: 20 nM fluorescein-labelled nucleotide

## Nc1nc2c(ncn2[C@@H]2O[C@@H]3COP(=O)(O)O[C@H]4[C@@H](O)[C@H](n5cnc6c(=O)[nH]c(N)nc65)O[C@@H]4COP(=O)(O)O[C@H]3[C@H]2O)c(=O)[nH]1 [c-di-GMP, Cyclic di-GMP]
  dissociation constant (Kd): did not bind
